Reference: the NIST ThermoML archive (doi:10.1007/s10765-009-0566-6)

Test: cn = amount concentration of the nth substance listed, in mol/dm3
Conditions: 101 kPa, Liquid, Direct current cell with electrodes

CCCCCn1cc[n+](C)c1.[Cl-] [1-methyl-3-pentylimidazolium chloride] + O
Conditions | molar conductivity [S·m2/mol]
298.15 K, c1 = 0.000693 | 0.00871
298.15 K, c1 = 0.001453 | 0.00866
298.15 K, c1 = 0.002097 | 0.00863
298.15 K, c1 = 0.002732 | 0.00862
298.15 K, c1 = 0.004637 | 0.0086
298.15 K, c1 = 0.006272 | 0.00858
298.15 K, c1 = 0.007754 | 0.00852
298.15 K, c1 = 0.01023 | 0.00841
298.15 K, c1 = 0.01283 | 0.00832
298.15 K, c1 = 0.01775 | 0.00817
298.15 K, c1 = 0.02186 | 0.00804
298.15 K, c1 = 0.02704 | 0.00793
298.15 K, c1 = 0.03205 | 0.00783
298.15 K, c1 = 0.0368 | 0.0078
298.15 K, c1 = 0.04132 | 0.00772
298.15 K, c1 = 0.04635 | 0.00763
298.15 K, c1 = 0.05182 | 0.00752
308.15 K, c1 = 0.000752 | 0.00993
308.15 K, c1 = 0.001643 | 0.00975
308.15 K, c1 = 0.002686 | 0.00964
308.15 K, c1 = 0.00347 | 0.00956
308.15 K, c1 = 0.004191 | 0.00959
308.15 K, c1 = 0.005081 | 0.00953
308.15 K, c1 = 0.006215 | 0.00945
308.15 K, c1 = 0.007646 | 0.00937
308.15 K, c1 = 0.009172 | 0.00927
308.15 K, c1 = 0.01102 | 0.00917
308.15 K, c1 = 0.01269 | 0.00912
308.15 K, c1 = 0.01447 | 0.00906
308.15 K, c1 = 0.01625 | 0.00902
308.15 K, c1 = 0.01799 | 0.00895
308.15 K, c1 = 0.01986 | 0.00889
308.15 K, c1 = 0.02253 | 0.00881
308.15 K, c1 = 0.02549 | 0.00873
308.15 K, c1 = 0.02884 | 0.00863
308.15 K, c1 = 0.03245 | 0.00856
308.15 K, c1 = 0.0363 | 0.00846
308.15 K, c1 = 0.04073 | 0.00837
308.15 K, c1 = 0.04603 | 0.0082
308.15 K, c1 = 0.04936 | 0.00814
318.15 K, c1 = 0.000273 | 0.0115
318.15 K, c1 = 0.000592 | 0.0114
318.15 K, c1 = 0.001207 | 0.0112
318.15 K, c1 = 0.002002 | 0.0111
318.15 K, c1 = 0.002757 | 0.011
318.15 K, c1 = 0.003483 | 0.0108
318.15 K, c1 = 0.004458 | 0.0107
318.15 K, c1 = 0.005601 | 0.0106
318.15 K, c1 = 0.007348 | 0.0105
318.15 K, c1 = 0.008904 | 0.0104
318.15 K, c1 = 0.01052 | 0.0103
318.15 K, c1 = 0.0124 | 0.0102
318.15 K, c1 = 0.01478 | 0.0101
318.15 K, c1 = 0.01661 | 0.01
318.15 K, c1 = 0.0196 | 0.00989
318.15 K, c1 = 0.02241 | 0.00978
318.15 K, c1 = 0.02545 | 0.00966
318.15 K, c1 = 0.02897 | 0.00953
318.15 K, c1 = 0.03318 | 0.00939
318.15 K, c1 = 0.03779 | 0.00924
328.15 K, c1 = 0.000588 | 0.0119
328.15 K, c1 = 0.001076 | 0.0118
328.15 K, c1 = 0.001612 | 0.0117
328.15 K, c1 = 0.002109 | 0.0116
328.15 K, c1 = 0.002949 | 0.0116
328.15 K, c1 = 0.003721 | 0.0116
328.15 K, c1 = 0.004608 | 0.0115
328.15 K, c1 = 0.005897 | 0.0113
328.15 K, c1 = 0.007087 | 0.0111
328.15 K, c1 = 0.008632 | 0.011
328.15 K, c1 = 0.01034 | 0.0108
328.15 K, c1 = 0.01229 | 0.0106
328.15 K, c1 = 0.01539 | 0.0105
328.15 K, c1 = 0.01788 | 0.0104
328.15 K, c1 = 0.02011 | 0.0103
328.15 K, c1 = 0.02273 | 0.0101
